Some results are limits rather than exact numbers.

In the first test the target is AMPK. As to the kind of experiment: AMPK activation, enzyme-linked immunosorbent assay. It is filed as biochemical. The settings on record: Table 8, compounds of Table 1. The gist of the method: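 AMPK activation by test compounds was measured by enzyme-linked immunosorbent assay.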
Consider `CN(C(=O)c1cc2cc(OC3CCN(c4ccc(C(F)(F)F)cc4)CC3)ccc2o1)C1CCN(C(=O)c2ccncc2)CC1` [Compound 1-118, N-(1-isonicotinoylpiperidin-4-yl)-N-methyl-5-(1-(4-(trifluoromethyl)phenyl)piperidin-4-yloxy)benzofuran-2-carboxamide], for which the EC50 (usually the concentration needed to bring the measured effect to its halfway point) fell in the range of 100 to 500 nM.

In turn, `O=C(NC1CCN(Cc2ccc(OC(F)(F)F)cc2)CC1)c1cc2cc(O[C@@H]3CCN(Cc4ccc(-n5cccn5)cc4)C[C@H]3F)ccc2o1` [Compound 1-169, 5-((3,4-trans)-1-(4-(1H-pyrazol-1-yl)benzyl)-3-fluoropiperidin-4-yloxy)-N-(1-(4-(trifluoromethoxy)benzyl)piperidin-4-yl)benzofuran-2-carboxamide] returned a half-maximal effective concentration (EC50) of less than 100 nM.

In turn, `CN(C(=O)c1cc2cc(OC3CCN(c4ccc(C(F)(F)F)cc4)CC3)ccc2o1)C1CCN(Cc2ccc(C#N)cc2)CC1` [Compound 1-107, N-(1-(4-cyanobenzyl)piperidin-4-yl)-N-methyl-5-(1-(4-(trifluoromethyl)phenyl)piperidin-4-yloxy)benzofuran-2-carboxamide] yielded an EC50 of less than 100 nM.

`CN(C(=O)c1cc2cc(OC3CCN(c4ccc(C(F)(F)F)cc4)CC3)ccc2o1)C1CCN(Cc2cccc(C#N)c2)CC1` [Compound 1-110, N-(1-(3-cyanobenzyl)piperidin-4-yl)-N-methyl-5-(1-(4-(trifluoromethyl)phenyl)piperidin-4-yloxy)benzofuran-2-carboxamide] had an EC50 of less than 100 nM.

For `O=C(NC1CCN(C(=O)c2ccncc2)CC1)c1cc2ccc(OC3CCN(c4ccc(C(F)(F)F)cc4)CC3)cc2o1` [Compound 1-112, N-(1-isonicotinoylpiperidin-4-yl)-6-(1-(4-(trifluoromethyl)phenyl)piperidin-4-yloxy)benzofuran-2-carboxamide], the EC50 is less than 100 nM.

Turning to `O=C(NC1CCN(Cc2ccc3ccccc3c2)CC1)c1ccc(OC2CCN(c3ccc(C(F)(F)F)cc3)CC2)cn1` [Compound 1-37, N-(1-(naphthalen-2-ylmethyl)piperidin-4-yl)-5-(1-(4-(trifluoromethyl)phenyl)piperidin-4-yloxy)picolinamide], the EC50 lay in the range of 500 to 1000 nM.

On to `O=C(NC1CCN(Cc2ccc(F)cc2)CC1)c1cc(OC2CCN(c3ccc(C(F)(F)F)cc3)CC2)ccn1` [Compound 1-29, N-(1-(4-fluorobenzyl)piperidin-4-yl)-4-(1-(4-(trifluoromethyl)phenyl)piperidin-4-yloxy)picolinamide], for which the EC50 is 100 to 500 nM.

In the case of `CC(C)(C)OC(=O)N1CCC(NC(=O)c2cc3cc(OC4CCN(Cc5ccc(C#N)cc5)CC4)ccc3o2)CC1` [Compound 1-113, tert-butyl 4-(5-(1-(4-cyanobenzyl)piperidin-4-yloxy)benzofuran-2-carboxamido) piperidine-1-carboxylate], the EC50 lay within 100 to 500 nM.

`O=C(NC1CCNCC1)c1sc2cc(OC3CCN(c4ccc(C(F)(F)F)cc4)CC3)ccc2c1Cl` [Compound 1-148, 3-chloro-N-(piperidin-4-yl)-6-(1-(4-(trifluoromethyl)phenyl)piperidin-4-yloxy)benzo [b]thiophene-2-carboxamide] registered an EC50 greater than 10000 nM.

Still in this test, the particulars now being: Table 9, compounds of Table 2.
On to `N#Cc1ccc(CN2CCC(NC(=O)c3ccc4[nH]c5c(c4c3)CN(S(=O)(=O)c3ccc(C#N)cc3)CC5)CC2)cc1` [Compound 2-25, N-(1-(4-cyanobenzyl)piperidin-4-yl)-2-(4-cyanophenylsulfonyl)-2,3,4,5-tetrahydro-1H-pyrido[4,3-b]indole-8-carboxamide], for which the EC50 lay in the range of 10000 to 50000 nM.

Take `O=C(NC1CCN(S(=O)(=O)c2cccc(C(F)(F)F)c2)CC1)c1ccc2[nH]c3c(c2c1)CN(Cc1ccc(C(F)(F)F)cc1)CC3` [Compound 2-30, 2-(4-(trifluoromethyl)benzyl)-N-(1-(3-(trifluoromethyl)phenylsulfonyl)piperidin-4-yl)-2,3,4,5-tetrahydro-1H-pyrido[4,3-b]indole-8-carboxamide]: the EC50 was in the range of 1000 to 5000 nM.

With `CC(C)(C)OC(=O)N1CCC(NC(=O)c2ccc3[nH]c4c(c3c2)CN(c2ccc(F)cc2)CC4)CC1` [Compound 2-38, tert-butyl 4-(2-(4-fluorophenyl)-2,3,4,5-tetrahydro-1H-pyrido[4,3-b]indole-8-carboxamido)piperidine-1-carboxylate], the EC50 lay within 10000 to 50000 nM.

The same test, now with this note: Table 12, compounds of Table 5.
Consider `O=C(NC1CCN(Cc2ccccc2)CC1)c1ccc(OC2CCN(Cc3ccccn3)CC2)c(F)c1` [Compound 5-39, N-(1-benzylpiperidin-4-yl)-3-fluoro-4-(1-(pyridin-2-ylmethyl)piperidin-4-yloxy)benzamide], for which the EC50 lay in the range of 1000 to 10000 nM.

Compound `O=C(NC1CCN(Cc2ccccc2)CC1)c1ccc(OC2CCNCC2)c(Cl)c1` [Compound 5-93, N-(1-benzylpiperidin-4-yl)-3-chloro-4-(piperidin-4-yloxy)benzamide] gave an EC50 greater than 100000 nM.

`O=C(NC1CCN(Cc2ccncc2)CC1)c1ccc(OC2CCN(c3ccc(C(F)(F)F)cc3)CC2)c(F)c1` [Compound 5-28, 3-fluoro-N-(1-(pyridin-4-ylmethyl)piperidin-4-yl)-4-(1-(4-(trifluoromethyl)phenyl)piperidin-4-yloxy)benzamide] displayed an EC50 of less than 1000 nM.

For the compound `O=C(NC1CCN(Cc2ccccc2)CC1)c1cc(Cl)c(OC2CCN(Cc3ccc(Cl)cc3)CC2)c(Cl)c1` [Compound 5-75, N-(1-benzylpiperidin-4-yl)-3,5-dichloro-4-(1-(4-chlorobenzyl)piperidin-4-yloxy)benzamide], the EC50 is less than 1000 nM.

On to `COc1cc(C(=O)NC2CCN(Cc3ccccc3)CC2)ccc1OC1CCN(CCCc2ccccc2)CC1` [Compound 5-7, N-(1-benzylpiperidin-4-yl)-3-methoxy-4-(1-(3-phenylpropyl)piperidin-4-yloxy)benzamide], for which the EC50 is less than 1000 nM.

`O=C(NC1CCN(Cc2ccccc2)CC1)c1cccc(OC2CCN(Cc3ccc(C(F)(F)F)cc3)CC2)c1` [Compound 5-52, N-(1-benzylpiperidin-4-yl)-3-(1-(4-(trifluoromethyl)benzyl)piperidin-4-yloxy)benzamide] yielded an EC50 of 1000 to 10000 nM.

For `CC(C)(C)OC(=O)N1CCC(Oc2ccc(C(=O)NC3CCN(Cc4ccccc4)CC3)cc2Cl)CC1` [Compound 5-90, tert-butyl 4-(4-(1-benzylpiperidin-4-ylcarbamoyl)-2-chlorophenoxy) piperidine-1-carboxylate], the EC50 fell in the range of 1000 to 10000 nM.

In turn, `O=C(NC1CCN(Cc2ccccc2)CC1)c1ccc(OC2CCN(c3ccc(C(F)(F)F)cc3)CC2)c(F)c1` [Compound 5-23, N-(1-benzylpiperidin-4-yl)-3-fluoro-4-(1-(4-(trifluoromethyl)phenyl)piperidin-4-yloxy)benzamide] showed an EC50 of less than 1000 nM.

Still in this test, the particulars now being: Table 13, compounds of Table 6.
Turning to `N#Cc1ccc(CN2CCC(NC(=O)c3cc4cc(C(=O)NC5CCN(Cc6ccn(-c7ccc(C#N)cc7)n6)CC5)ccc4o3)CC2)cc1` [Compound 6-91, N2-(1-(4-cyanobenzyl)piperidin-4-yl)-N5-(1-((1-(4-cyanophenyl)-1H-pyrazol-3-yl)methyl)piperidin-4-yl)benzofuran-2,5-dicarboxamide], the EC50 lay in the range of 1000 to 10000 nM.

Regarding `N#Cc1ccc(CN2CCC(NC(=O)c3cc4cc(NC(=O)C5CCN(c6ccc(C#N)cn6)CC5)ccc4o3)CC2)cc1` [Compound 6-70, N-(2-(1-(4-cyanobenzyl)piperidin-4-ylcarbamoyl)benzofuran-5-yl)-1-(5-cyanopyridin-2-yl)piperidine-4-carboxamide], the EC50 was less than 100 nM.

On to `COc1ccc(CN2CCC(NC(=O)c3cc4cc(C(=O)N5CCN(c6ccc(C(F)(F)F)cc6)CC5)ccc4o3)CC2)cc1` [Compound 6-119, N-(1-(4-methoxybenzyl)piperidin-4-yl)-5-(4-(4-(trifluoromethyl)phenyl)piperazine-1-carbonyl) benzofuran-2-carboxamide], for which the EC50 was less than 100 nM.

In turn, `N#Cc1ccc(CN2CCC(NC(=O)c3cc4cc(NC(=O)C5CCN(Cc6ccc(C#N)cc6)CC5)ccc4o3)CC2)cc1` [Compound 6-49, l-(4-cyanobenzyl)-N-(2-(l-(4-cyanobenzyl)piperidin-4-ylcarbamoyl)benzofiiran-5-yl)piperidine-4-carbox amide] had an EC50 of 100 to 1000 nM.

In turn, `CS(=O)(=O)c1ccc(CN2CCN(C(=O)c3ccc4oc(C(=O)NC5CCN(Cc6ccc(C#N)cc6)CC5)cc4c3)CC2)cc1F` [Compound 6-102] registered an EC50 of less than 100 nM.

In the case of `N#Cc1ccc(CN2CCC(NC(=O)c3cc4cc(CN5CCN(Cc6ccc(F)cc6)CC5)ccc4o3)CC2)cc1` [Compound 6-13, N-(1-(4-cyanobenzyl)piperidin-4-yl)-5-((4-(4-fluorobenzyl)piperazin-1-yl)methyl)benzofuran-2-carboxamide], the EC50 was less than 100 nM.

In the case of `CS(=O)(=O)c1ccc(CN2CCN(C(=O)c3ccc4oc(C(=O)NC5CCN(Cc6ccc(OC(F)(F)F)c(F)c6)CC5)cc4c3)CC2)cc1` [Compound 6-138, N-(1-(3-fluoro-4-(trifluoromethoxy)benzyl)piperidin-4-yl)-5-(4-(4-(methylsulfonyl)benzyl)piperazine-1-carbonyl) benzofuran-2-carboxamide], the EC50 was less than 100 nM.

Still in this test, the particulars now being: Table 14, compounds of Table 7.
For `COc1ccc(C(=O)C2CCN(C(=O)c3ccc(C(=O)N[C@H]4CCN(Cc5ccc(C#N)cc5)C[C@@H]4F)cn3)CC2)cc1` (single isomer, unassigned) [Compound 7-107], the EC50 is less than 1000 nM.

As for `COc1ccc(C(=O)C2CCN(C(=O)c3ccc(C(=O)NC4CCN(Cc5ccc(F)c(OC)c5)C[C@H]4F)cn3)CC2)cc1` (stereo partly drawn) [Compound 7-43, N-((3,4-trans)-3-fluoro-1-(4-fluoro-3-methoxybenzyl)piperidin-4-yl)-6-(4-(4-methoxybenzoyl)piperidine-1-carbonyl)nicotinamide], the EC50 is less than 1000 nM.

Compound `COc1ccc(C(=O)C2CCN(C(=O)c3ccc(C(=O)NC4CCN(Cc5ccc(C#N)c(C)c5)C[C@H]4F)cn3)CC2)cc1` (stereo partly drawn) [Compound 7-59, N-((3,4-trans)-1-(4-cyano-3-methylbenzyl)-3-fluoropiperidin-4-yl)-6-(4-(4-methoxybenzoyl)piperidine-1-carbonyl)nicotinamide] gave an EC50 of less than 1000 nM.

In the case of `COc1ccc(C(=O)C2CCCN(C(=O)c3ccc(C(=O)Nc4ccc(Oc5ccc(F)cc5)nc4)cn3)C2)cc1` (stereo not shown) [Compound 7-10, N-(6-(4-fluorophenoxy)pyridin-3-yl)-6-(3-(4-methoxybenzoyl)piperidine-1-carbonyl)nicotinamide], the EC50 lay within 1000 to 10000 nM.

For the origin of these results see US9409884B2 (Rigel Pharmaceuticals, Inc., priority 2012, dated 2016).
